The values below come from ChEMBL document CHEMBL3797126, “Oxaspirol B with p97 Inhibitory Activity and Other Oxaspirols from Lecythophora sp. FL1375 and FL1031, Endolichenic Fungi Inhabiting Parmotrema tinctorum and Cladonia evansii” (J Nat Prod, 2016).

In test [1] the target is T1, Transitional endoplasmic reticulum ATPase (Homo sapiens, UniProt P55072). The note with it: 200 uM.
Target sequence in this assay (P55072 2-806 limits assumed): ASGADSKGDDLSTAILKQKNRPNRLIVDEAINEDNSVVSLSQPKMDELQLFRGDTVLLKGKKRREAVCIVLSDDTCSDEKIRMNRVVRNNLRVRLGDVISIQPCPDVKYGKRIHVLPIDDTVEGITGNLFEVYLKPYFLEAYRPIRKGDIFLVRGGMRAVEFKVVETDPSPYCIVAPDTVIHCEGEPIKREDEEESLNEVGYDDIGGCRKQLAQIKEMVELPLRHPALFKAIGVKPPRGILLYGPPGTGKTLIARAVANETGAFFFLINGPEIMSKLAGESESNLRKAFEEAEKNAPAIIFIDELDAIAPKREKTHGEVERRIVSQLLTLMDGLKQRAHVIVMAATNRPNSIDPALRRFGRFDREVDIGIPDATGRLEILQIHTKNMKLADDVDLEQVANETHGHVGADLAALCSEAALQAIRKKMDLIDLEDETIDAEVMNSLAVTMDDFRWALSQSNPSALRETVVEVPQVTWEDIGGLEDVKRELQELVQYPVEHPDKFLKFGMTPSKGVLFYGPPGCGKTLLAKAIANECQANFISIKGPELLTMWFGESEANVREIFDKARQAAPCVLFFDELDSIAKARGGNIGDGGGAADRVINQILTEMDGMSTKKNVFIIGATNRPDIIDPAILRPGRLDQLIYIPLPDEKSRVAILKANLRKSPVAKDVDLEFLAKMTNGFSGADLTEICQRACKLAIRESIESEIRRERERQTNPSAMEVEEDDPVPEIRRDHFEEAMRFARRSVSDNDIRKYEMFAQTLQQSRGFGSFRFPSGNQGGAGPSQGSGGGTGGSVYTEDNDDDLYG
Description: Inhibition of p97 cysteine-less mutant (unknown origin) at 200 uM after 10 mins by malachite green dye based visible spectrophotometry
Test [2] addresses chaperonin GroEL (Escherichia coli) (UniProt P0A6F5). The test can be described thus: Inhibition of Escherichia coli chaperonin GroEL up to 200 uM.
Test [3] concerns the target T1, Transitional endoplasmic reticulum ATPase. The note with it: 100 uM.
Target sequence in this assay (P55072 2-806 limits assumed): as above
Description: Reversible inhibition of p97 (unknown origin) ATPase activity at 100 uM after prolonged incubation of 6 hrs followed by dialysis for 2 hrs by malachite green dye based visible spectrophotometry
Test [4] has the same target. The test can be described thus: Inhibition of p97 (unknown origin) ATPase in HEK293 cells expressing UbG76VGFP fusion protein assessed as level of UbG76VGFP rescued by measuring GFP fluorescence loss by flow cytometry. Type of test: cell-based.
Target sequence in this assay (P55072 2-806 limits assumed): as above
Test [5] has as its target Transitional endoplasmic reticulum ATPase (Homo sapiens, UniProt P55072, C209A). The test can be described thus: Inhibition of p97-C209A mutant (unknown origin) after 10 mins by malachite green dye based visible spectrophotometry.
For test [6], the target named is T1, Transitional endoplasmic reticulum ATPase. The test can be described thus: Inhibition of p97 (unknown origin) ATPase activity after 10 mins by malachite green dye based visible spectrophotometry.
Target sequence in this assay (P55072 whole entry): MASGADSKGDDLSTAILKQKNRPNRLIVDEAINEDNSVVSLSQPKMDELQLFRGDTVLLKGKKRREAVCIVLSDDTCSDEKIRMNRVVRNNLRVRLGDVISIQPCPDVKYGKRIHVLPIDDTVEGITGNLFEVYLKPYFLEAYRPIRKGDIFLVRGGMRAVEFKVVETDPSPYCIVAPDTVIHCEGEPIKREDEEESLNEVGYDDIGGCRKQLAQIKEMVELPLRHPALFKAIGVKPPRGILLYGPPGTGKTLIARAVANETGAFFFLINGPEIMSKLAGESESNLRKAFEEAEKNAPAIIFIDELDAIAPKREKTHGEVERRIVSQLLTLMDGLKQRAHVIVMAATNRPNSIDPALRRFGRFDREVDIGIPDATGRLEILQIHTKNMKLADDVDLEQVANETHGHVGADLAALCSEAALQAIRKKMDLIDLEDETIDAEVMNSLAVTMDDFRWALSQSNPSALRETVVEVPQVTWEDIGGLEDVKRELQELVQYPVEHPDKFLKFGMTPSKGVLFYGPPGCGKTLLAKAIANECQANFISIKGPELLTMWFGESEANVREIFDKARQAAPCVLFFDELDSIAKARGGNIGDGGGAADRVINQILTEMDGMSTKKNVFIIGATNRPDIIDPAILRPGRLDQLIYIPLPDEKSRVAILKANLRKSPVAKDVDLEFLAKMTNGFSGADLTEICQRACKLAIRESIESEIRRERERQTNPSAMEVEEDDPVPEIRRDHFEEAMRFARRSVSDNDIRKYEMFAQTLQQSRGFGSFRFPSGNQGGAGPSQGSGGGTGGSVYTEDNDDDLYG
Test [7] concerns the target ATP-dependent clpX-like chaperone, mitochondrial (Homo sapiens) (UniProt O76031). The test can be described thus: Inhibition of type 1 AAA+ chaperone ClpX (unknown origin) up to 200 uM.
Test [8] concerns the target Vesicle-fusing ATPase (Homo sapiens) (UniProt P46459). The test can be described thus: Inhibition of type 2 AAA+ N-ethylmaleimide sensitive factor (unknown origin) up to 200 uM.
Test [9] concerns the target T1, Transitional endoplasmic reticulum ATPase. The test can be described thus: Inhibition of p97 (unknown origin) ATPase in HEK293 cells expressing T cell receptor alpha-GFP assessed as level of T cell receptor alpha-GFP rescued by flow cytometry. Type of test: cell-based. For orientation: A flow cytometer gives signals particle by particle.
Target sequence in this assay (P55072 2-806 limits assumed): as the sequence (P55072 2-806 limits assumed) above
Test [10] addresses Transitional endoplasmic reticulum ATPase (Homo sapiens, UniProt P55072, C522A). The test can be described thus: Inhibition of p97-C522A mutant (unknown origin) after 10 mins by malachite green dye based visible spectrophotometry.
The target in test [11] is T1, Transitional endoplasmic reticulum ATPase. The test can be described thus: Inhibition of p97 (unknown origin) ATPase activity up to 200 uM after 10 mins by malachite green dye based visible spectrophotometry.
Target sequence in this assay (P55072 2-806 limits assumed): as above
For test [12] the target is unchanged. The test can be described thus: Reversible inhibition of p97 (unknown origin) ATPase activity after prolonged incubation followed by dialysis.
Target sequence in this assay (P55072 2-806 limits assumed): as above

Calls of active or inactive are those of the source. The rule behind the calls is not given here.

ATP-dependent clpX-like chaperone, mitochondrial (Homo sapiens), sequence (O76031 whole entry): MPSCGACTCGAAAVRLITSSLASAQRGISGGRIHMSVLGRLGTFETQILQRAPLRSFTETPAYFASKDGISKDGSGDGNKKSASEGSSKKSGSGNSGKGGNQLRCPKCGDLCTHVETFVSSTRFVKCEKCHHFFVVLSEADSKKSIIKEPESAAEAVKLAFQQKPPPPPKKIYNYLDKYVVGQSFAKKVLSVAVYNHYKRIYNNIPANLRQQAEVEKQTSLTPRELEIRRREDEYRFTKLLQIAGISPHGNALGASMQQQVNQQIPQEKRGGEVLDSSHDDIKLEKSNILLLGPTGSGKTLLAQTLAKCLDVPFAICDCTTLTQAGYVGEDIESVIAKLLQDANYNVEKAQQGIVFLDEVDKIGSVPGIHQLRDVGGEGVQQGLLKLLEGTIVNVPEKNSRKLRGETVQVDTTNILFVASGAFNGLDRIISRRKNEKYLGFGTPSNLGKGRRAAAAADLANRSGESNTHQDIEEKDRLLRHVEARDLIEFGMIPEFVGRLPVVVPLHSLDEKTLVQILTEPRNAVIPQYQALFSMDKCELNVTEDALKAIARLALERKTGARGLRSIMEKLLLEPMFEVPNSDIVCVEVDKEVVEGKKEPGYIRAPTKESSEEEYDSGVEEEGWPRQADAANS
chaperonin GroEL (Escherichia coli), sequence (P0A6F5 whole entry, looked up): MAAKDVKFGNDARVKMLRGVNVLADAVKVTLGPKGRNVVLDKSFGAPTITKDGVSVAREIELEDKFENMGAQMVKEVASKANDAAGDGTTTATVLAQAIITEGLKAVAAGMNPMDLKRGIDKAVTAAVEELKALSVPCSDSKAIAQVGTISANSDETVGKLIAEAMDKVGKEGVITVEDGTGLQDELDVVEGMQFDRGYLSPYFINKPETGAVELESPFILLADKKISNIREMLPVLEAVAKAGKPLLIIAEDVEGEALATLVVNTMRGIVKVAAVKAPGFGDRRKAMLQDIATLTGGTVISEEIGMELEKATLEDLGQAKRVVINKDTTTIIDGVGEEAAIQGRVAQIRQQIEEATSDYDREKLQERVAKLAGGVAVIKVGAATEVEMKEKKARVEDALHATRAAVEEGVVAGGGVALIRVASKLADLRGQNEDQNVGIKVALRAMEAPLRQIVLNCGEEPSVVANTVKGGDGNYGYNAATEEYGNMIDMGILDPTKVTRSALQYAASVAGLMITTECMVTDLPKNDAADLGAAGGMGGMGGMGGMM
Transitional endoplasmic reticulum ATPase (Homo sapiens, UniProt P55072, C522A), sequence (P55072 2-806 C522A limits assumed): as the sequence (P55072 2-806 limits assumed) above, with C521A counted along it
Vesicle-fusing ATPase (Homo sapiens), sequence (P46459 whole entry): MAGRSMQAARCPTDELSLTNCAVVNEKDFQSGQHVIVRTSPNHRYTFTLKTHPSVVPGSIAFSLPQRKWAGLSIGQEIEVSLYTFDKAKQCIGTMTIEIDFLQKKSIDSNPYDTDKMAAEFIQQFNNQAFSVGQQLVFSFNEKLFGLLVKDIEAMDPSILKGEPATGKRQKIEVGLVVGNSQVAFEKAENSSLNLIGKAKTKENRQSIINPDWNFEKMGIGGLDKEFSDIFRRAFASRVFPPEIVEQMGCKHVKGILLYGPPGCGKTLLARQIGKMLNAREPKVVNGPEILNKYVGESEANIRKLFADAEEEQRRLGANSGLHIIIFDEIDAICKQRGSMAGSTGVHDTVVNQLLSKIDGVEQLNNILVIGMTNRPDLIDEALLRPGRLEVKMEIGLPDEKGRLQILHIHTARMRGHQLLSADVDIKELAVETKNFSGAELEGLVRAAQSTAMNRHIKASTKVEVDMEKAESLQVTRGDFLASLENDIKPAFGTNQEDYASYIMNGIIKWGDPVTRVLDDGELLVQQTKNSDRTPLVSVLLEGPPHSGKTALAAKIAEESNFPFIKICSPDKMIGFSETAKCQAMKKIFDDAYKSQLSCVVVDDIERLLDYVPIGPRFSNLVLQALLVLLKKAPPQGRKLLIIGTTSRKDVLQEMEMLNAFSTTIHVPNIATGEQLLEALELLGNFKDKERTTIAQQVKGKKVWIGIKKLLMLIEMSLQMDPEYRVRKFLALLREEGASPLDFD
Transitional endoplasmic reticulum ATPase (Homo sapiens, UniProt P55072, C209A), sequence (P55072 2-806 C209A limits assumed): as the sequence (P55072 2-806 limits assumed) above, with C208A counted along it

The term IC50 denotes the point on the concentration scale where inhibition reaches its midpoint. As to `C=C1OC(=O)C2(C1=O)[C@H](/C=C/C=C/CCC)C=C[C@@H](O)[C@@H]2O` (mixture of isomers), the inhibition entry in test [1], in [2], in [7] and in test [8] was “inactive” each time. In addition, in test [3], the inhibition entry is “Active”. For the same compound, the inhibition entry in [4] and in test [9] was “Dose-dependent effect” throughout. The figures for the IC50 in test [5], in test [6] and in test [10] were 18 µM, 31.2 µM and 26.3 µM, respectively.
As to `C=C1OC(=O)[C@@]2(C1=O)[C@H](/C=C/C=C/CCC)C=C[C@@H](OC(C)=O)[C@@H]2OC(C)=O`, the inhibition entry in test [11] was “inactive”.
`C=C1OC(=O)[C@]2(C1=O)[C@H](/C=C/C=C/CCC)C=C[C@@H](OC(C)=O)[C@@H]2OC(C)=O`: in test [11], the inhibition result was “inactive”.
`C[C@H]1CCC/C=C/C(=O)c2c(O)cc(O)cc2CC(=O)O1`: the inhibition result in test [12] is “inactive”.
